The values below are quoted from earlier work in US20220259243A1, “IRON(III) AND GALLIUM(III) METAL ORGANIC POLYHEDRA, METHODS OF MAKING SAME, AND USES THEREOF” (The Research Foundation for The State University of New York, priority 2019, published 2022).

The conditions of the data set: 37° C., 4.7 Tesla, neutral pH.

As for `CNC[C@H](O)[C@@H](O)[C@H](O)[C@H](O)CO.CNC[C@H](O)[C@@H](O)[C@H](O)[C@H](O)CO.O=C([O-])CN(CCN(CC(=O)[O-])CC(=O)O)CCN(CC(=O)[O-])CC(=O)O.[Gd+3]` [Magnevist], the r1 relaxivity was 3 mM⁻¹ s⁻¹.
